Data as given in US9029386B2, “Pyridine derivatives useful as kinase inhibitors” (YM Biosciences Australia Pty Ltd, priority 2006, dated 2015).
pIC50: −log10 of the molar value.

Target: T1, KDR protein kinase (Homo sapiens, UniProt P35968)
T1 construct: purchased Millipore 14-630M
Assay: Alphascreen protein tyrosine kinase assay, KDR
Format: biochemical
Settings: not given
Procedure: (§1) For screening purposes, compounds were diluted in 96 well plates at a concentration of 20 μM. Plates were warmed at 37° C. for 30 minutes before assay.
FLT-3 and PDGFR β tyrosine kinase enzymes were purchased from Upstate Cell Signalling Solutions, CA, USA (flt-3 catalog #: 14-500 and PDGFR β catalog #: 14-463). KDR protein kinase enzyme was purchased from Millipore (catalogue #14-630M).
Kinase assays were performed in 384 well Optiplates (Packard) using an Alphascreen Protein Tyrosine Kinase kit. […] The biotinylated peptides Biotin-[…]-NH2 for c-KIT and PDGFRβ and Biotin-[…]-NH2 for CSF1-R and FLT-3 (final concentration 0.1-3 μM) were used as substrates. Alphascreen phosphotyrosine acceptor beads followed by streptavidin donor beads were added under subdued light. The Alphascreen plates were read on a Packard Fusion Alpha. Inhibitors were added to the assays thirty minutes prior to the addition of ATP. Inhibitors were added in aqueous DMSO, with DMSO concentrations never exceeding 1%.

T1 sequence (P35968 20-1356): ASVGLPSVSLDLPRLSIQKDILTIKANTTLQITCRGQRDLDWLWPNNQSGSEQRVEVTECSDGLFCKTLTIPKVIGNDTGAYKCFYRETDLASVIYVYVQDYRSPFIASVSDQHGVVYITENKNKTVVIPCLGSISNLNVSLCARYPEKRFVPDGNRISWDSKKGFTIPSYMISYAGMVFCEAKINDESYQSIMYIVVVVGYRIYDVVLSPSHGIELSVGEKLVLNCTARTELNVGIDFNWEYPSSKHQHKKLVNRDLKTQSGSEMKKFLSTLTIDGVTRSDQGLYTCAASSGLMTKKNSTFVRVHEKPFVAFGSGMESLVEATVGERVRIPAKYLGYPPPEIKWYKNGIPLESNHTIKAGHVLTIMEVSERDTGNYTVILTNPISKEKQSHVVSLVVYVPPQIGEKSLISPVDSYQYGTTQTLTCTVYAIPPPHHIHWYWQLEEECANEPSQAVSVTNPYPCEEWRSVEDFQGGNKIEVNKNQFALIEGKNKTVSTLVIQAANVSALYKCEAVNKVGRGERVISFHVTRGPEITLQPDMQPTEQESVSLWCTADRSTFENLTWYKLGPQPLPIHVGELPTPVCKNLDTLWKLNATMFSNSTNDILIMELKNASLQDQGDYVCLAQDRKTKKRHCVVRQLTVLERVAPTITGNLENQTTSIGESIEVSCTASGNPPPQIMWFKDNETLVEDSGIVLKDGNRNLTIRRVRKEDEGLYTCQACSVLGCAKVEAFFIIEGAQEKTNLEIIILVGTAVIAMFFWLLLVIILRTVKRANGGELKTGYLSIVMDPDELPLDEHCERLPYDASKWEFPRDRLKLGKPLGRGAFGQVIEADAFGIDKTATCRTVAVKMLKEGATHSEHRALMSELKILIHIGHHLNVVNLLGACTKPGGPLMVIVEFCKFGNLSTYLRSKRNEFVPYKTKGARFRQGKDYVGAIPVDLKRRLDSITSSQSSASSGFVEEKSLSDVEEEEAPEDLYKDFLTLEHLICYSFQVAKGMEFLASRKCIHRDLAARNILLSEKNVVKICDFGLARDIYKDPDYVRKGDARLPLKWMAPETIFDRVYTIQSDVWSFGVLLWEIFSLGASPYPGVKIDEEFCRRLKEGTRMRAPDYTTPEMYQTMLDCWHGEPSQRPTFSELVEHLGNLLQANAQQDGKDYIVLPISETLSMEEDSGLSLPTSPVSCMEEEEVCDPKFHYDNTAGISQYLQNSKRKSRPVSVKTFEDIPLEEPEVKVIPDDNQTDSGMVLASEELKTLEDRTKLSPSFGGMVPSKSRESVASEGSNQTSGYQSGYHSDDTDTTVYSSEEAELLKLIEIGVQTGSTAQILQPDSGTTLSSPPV

pIC50	SMILES
> 7.00	COc1cccc(-c2cncc(N[C@@H](C)c3cccc(NC(=O)c4cncc(C)c4)c3)n2)c1 [Compound 24]

Target: T2, kinase domain of human CSF1-R (Homo sapiens, UniProt P07333)
T2 construct: from codon I553 to Q961; made in house; host or cells: Sf9 insect cells (baculovirus)
T2 sequence (P07333 553-961): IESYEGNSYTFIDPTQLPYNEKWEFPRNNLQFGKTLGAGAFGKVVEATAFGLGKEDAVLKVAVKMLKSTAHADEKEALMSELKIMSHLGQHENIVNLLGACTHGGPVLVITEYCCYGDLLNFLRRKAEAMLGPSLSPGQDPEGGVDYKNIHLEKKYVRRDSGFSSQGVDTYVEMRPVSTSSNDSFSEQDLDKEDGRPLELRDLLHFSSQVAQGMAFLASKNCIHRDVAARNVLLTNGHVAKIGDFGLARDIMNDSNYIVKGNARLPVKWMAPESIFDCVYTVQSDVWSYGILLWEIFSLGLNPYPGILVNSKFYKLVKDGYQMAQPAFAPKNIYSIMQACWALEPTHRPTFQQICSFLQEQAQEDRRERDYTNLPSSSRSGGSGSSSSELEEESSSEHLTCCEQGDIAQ
Assay: Alphascreen protein tyrosine kinase assay, CSF-1R
Format: biochemical
Settings: not given
Procedure: as §1
The kinase domain of human CSF1-R from codon I553 to Q961 was cloned into the pDEST-20 expression vector (Invitrogen). The CSF1-R plasmid was then transformed into competent DH10Bac cells (Gibco), and the recombinant baculovirus produced prepared for transfection into Sf9 insect cells.
(§2) Baculovirus preparations from each of construct were infected into five liters of SF9 cells (Invitrogen) grown in SF-900 medium (Invitrogen) to a cell density of approximately 1−2×10^6 cells/ml. […] Cells were harvested and lysed. Tyrosine kinase domains were purified by affinity chromatography on a glutathione-agarose column (Scientifix Pty. Ltd. catalog #: GSH-200).
(§3) Kinase assays were performed in 384 well Optiplates (Packard) using an Alphascreen Protein Tyrosine Kinase kit. […] Alphascreen phosphotyrosine acceptor beads followed by streptavidin donor beads were added under subdued light. The Alphascreen plates were read on a Packard Fusion Alpha. Inhibitors were added to the assays thirty minutes prior to the addition of ATP. Inhibitors were added in aqueous DMSO, with DMSO concentrations never exceeding 1%.

SMILES	pIC50
COc1cc(-c2cncc(N[C@@H](C)c3cccc(NC(=O)c4cccnc4)c3)n2)ccc1N [Compound 7]	> 7.00
COc1cccc(-c2cncc(N[C@@H](C)c3cccc(NC(=O)c4cncc(C)c4)c3)n2)c1 [Compound 24]	> 7.00
COc1cc(-c2cncc(N[C@@H](C)c3cccc(NC(=O)c4cncc(C)c4)c3)n2)ccc1O [Compound 28]	> 7.00
Cc1cncc(C(=O)Nc2cccc([C@H](C)Nc3cncc(-c4ccc(NCCN5CCOCC5)nc4)n3)c2)c1 [Compound 80]	> 7.00

Further lines, results first:

pIC50	SMILES
> 7.00	COc1cc(-c2cncc(N[C@@H](C)c3cccc(NC(=O)c4cncc(C)c4)c3)n2)ccc1N [Compound 29]
> 7.00	COc1cc(-c2cncc(N[C@@H](C)c3cccc(NC(=O)c4ccc(C)nc4)c3)n2)ccc1N [Compound 38]
> 7.00	COc1cc(-c2cncc(N[C@@H](C)c3cccc(NC(=O)c4cccc(C)c4)c3)n2)ccc1O [Compound 76]
> 7.00	Cc1cncc(C(=O)Nc2cccc([C@H](C)Nc3cncc(-c4ccc(N5CCOCC5)nc4)n3)c2)c1 [Compound 79]

Test system: Baf3-WT
Assay: Cellular assay (Alamar Blue), Baf3-WT with mouse IL-3
Format: cell-based
Settings: mouse IL-3 at 5 ng/ml, 72 hr
Procedure: (§4) Cells for the assays were prepared by harvesting cells from culture, and then diluting them in the appropriate growth medium to between 40,000 cell/mL and 600,000 cell/mL, depending on the cell line.
(§5) The compounds to be tested were added (104, 10× final concentration) to a flat bottomed 96-well plate. The cellular suspension (80 μL per well) was added, and one hour later the growth factor was added (human M-CSF at 20 ng/ml for mNFS-60, mouse IL-3 at 5 ng/ml for Baf3-WT). The plate was then incubated for 72 hr at 37° C., 5% CO2. Alamar Blue (10^4 per well) was added and the plates returned to the incubator for a further 4-8 hours.
(§6) The plates were then read using a fluorescence plate reader at excitation 544 nm and emission 590 nm.

pIC50	SMILES
< 5.00	COc1cccc(-c2cncc(N[C@@H](C)c3cccc(NC(=O)c4cncc(C)c4)c3)n2)c1 [Compound 24]

Test system: mNFS-60
Assay: Cellular assay (Alamar Blue), mNFS-60 with human M-CSF
Format: cell-based
Settings: human M-CSF at 20 ng/ml, 72 hr
Procedure: as §4, §5, §6

SMILES	pIC50
COc1cccc(-c2cncc(N[C@@H](C)c3cccc(NC(=O)c4cncc(C)c4)c3)n2)c1 [Compound 24]	> 6.70

Target: T3, PDGFR β tyrosine kinase (Homo sapiens, UniProt P09619)
T3 construct: purchased Upstate Cell Signalling Solutions, CA, USA 14-463
Assay: Alphascreen protein tyrosine kinase assay, PDGFRβ
Format: biochemical
Settings: not given

T3 sequence (P09619 33-1106): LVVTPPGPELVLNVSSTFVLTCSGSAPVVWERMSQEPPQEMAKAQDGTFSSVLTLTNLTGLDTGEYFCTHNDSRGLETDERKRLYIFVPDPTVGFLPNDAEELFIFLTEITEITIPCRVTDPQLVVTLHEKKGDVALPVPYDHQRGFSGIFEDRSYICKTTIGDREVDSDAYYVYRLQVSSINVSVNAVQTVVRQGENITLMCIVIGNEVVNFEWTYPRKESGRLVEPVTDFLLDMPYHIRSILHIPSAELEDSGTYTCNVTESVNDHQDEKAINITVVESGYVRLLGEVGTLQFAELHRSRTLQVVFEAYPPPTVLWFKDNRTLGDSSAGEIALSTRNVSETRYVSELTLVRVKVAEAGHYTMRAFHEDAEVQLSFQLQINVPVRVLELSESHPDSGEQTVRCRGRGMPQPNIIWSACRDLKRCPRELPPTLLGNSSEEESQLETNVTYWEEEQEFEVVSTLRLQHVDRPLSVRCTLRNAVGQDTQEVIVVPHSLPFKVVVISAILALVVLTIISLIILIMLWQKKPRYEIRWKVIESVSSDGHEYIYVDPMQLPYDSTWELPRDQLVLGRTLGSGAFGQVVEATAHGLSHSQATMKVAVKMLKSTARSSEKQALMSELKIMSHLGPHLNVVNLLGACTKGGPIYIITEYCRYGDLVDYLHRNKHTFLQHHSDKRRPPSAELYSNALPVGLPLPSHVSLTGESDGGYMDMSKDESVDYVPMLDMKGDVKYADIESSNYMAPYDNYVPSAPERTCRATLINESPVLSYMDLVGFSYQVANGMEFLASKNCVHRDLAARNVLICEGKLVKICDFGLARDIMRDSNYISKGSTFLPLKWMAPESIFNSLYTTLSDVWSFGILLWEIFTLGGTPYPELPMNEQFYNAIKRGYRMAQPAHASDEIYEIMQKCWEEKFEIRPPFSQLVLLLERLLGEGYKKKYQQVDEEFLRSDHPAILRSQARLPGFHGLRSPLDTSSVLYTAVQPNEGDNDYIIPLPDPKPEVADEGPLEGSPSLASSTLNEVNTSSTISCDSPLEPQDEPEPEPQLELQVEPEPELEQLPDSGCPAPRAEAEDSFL

SMILES	pIC50
COc1cc(-c2cncc(N[C@@H](C)c3cccc(NC(=O)c4cccnc4)c3)n2)ccc1N [Compound 7]	> 7.00
COc1cccc(-c2cncc(N[C@@H](C)c3cccc(NC(=O)c4cncc(C)c4)c3)n2)c1 [Compound 24]	> 7.00
COc1cc(-c2cncc(N[C@@H](C)c3cccc(NC(=O)c4cncc(C)c4)c3)n2)ccc1O [Compound 28]	> 7.00
Cc1cncc(C(=O)Nc2cccc([C@H](C)Nc3cncc(-c4ccc(NCCN5CCOCC5)nc4)n3)c2)c1 [Compound 80]	> 6.00

Results, then the molecule that gave them:

pIC50	SMILES
> 7.00	COc1cc(-c2cncc(N[C@@H](C)c3cccc(NC(=O)c4cncc(C)c4)c3)n2)ccc1N [Compound 29]
> 6.00	COc1cc(-c2cncc(N[C@@H](C)c3cccc(NC(=O)c4cccc(C)c4)c3)n2)ccc1O [Compound 76]
> 6.00	Cc1cncc(C(=O)Nc2cccc([C@H](C)Nc3cncc(-c4ccc(N5CCOCC5)nc4)n3)c2)c1 [Compound 79]

Target: T4, kinase domain of human c-kit (Homo sapiens, UniProt P10721)
T4 construct: from codon M552 to end; made in house; host or cells: Sf9 insect cells (baculovirus)
Assay: Alphascreen protein tyrosine kinase assay, c-KIT
Format: biochemical
Settings: not given
Procedure: as §1
The kinase domain of human c-kit from codon M552 to end was cloned into the pDEST-20 expression vector (Invitrogen). The c-kit plasmid was then transformed into competent DH10Bac cells (Gibco), and the recombinant baculovirus produced prepared for transfection into Sf9 insect cells.
as §2, §3

T4 sequence (P10721 552-976 limits assumed): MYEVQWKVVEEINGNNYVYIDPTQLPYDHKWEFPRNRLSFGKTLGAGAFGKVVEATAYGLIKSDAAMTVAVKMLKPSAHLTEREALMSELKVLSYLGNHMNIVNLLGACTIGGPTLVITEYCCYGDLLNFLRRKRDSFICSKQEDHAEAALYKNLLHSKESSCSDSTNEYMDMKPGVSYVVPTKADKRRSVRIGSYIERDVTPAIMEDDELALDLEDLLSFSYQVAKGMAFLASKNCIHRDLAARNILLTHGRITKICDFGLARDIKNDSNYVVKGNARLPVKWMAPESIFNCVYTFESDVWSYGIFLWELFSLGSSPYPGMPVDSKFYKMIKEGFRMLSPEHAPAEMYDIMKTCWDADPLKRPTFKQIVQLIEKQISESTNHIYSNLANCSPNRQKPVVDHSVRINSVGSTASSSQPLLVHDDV

SMILES	pIC50
COc1cc(-c2cncc(N[C@@H](C)c3cccc(NC(=O)c4cccnc4)c3)n2)ccc1N [Compound 7]	> 7.00
COc1cccc(-c2cncc(N[C@@H](C)c3cccc(NC(=O)c4cncc(C)c4)c3)n2)c1 [Compound 24]	> 7.00
COc1cc(-c2cncc(N[C@@H](C)c3cccc(NC(=O)c4cncc(C)c4)c3)n2)ccc1O [Compound 28]	> 7.00
Cc1cncc(C(=O)Nc2cccc([C@H](C)Nc3cncc(-c4ccc(NCCN5CCOCC5)nc4)n3)c2)c1 [Compound 80]	> 7.00

The remaining lines, values ahead:

pIC50	SMILES
> 7.00	COc1cc(-c2cncc(N[C@@H](C)c3cccc(NC(=O)c4cncc(C)c4)c3)n2)ccc1N [Compound 29]
> 7.00	COc1cc(-c2cncc(N[C@@H](C)c3cccc(NC(=O)c4ccc(C)nc4)c3)n2)ccc1N [Compound 38]
> 7.00	COc1cc(-c2cncc(N[C@@H](C)c3cccc(NC(=O)c4cccc(C)c4)c3)n2)ccc1O [Compound 76]
> 7.00	Cc1cncc(C(=O)Nc2cccc([C@H](C)Nc3cncc(-c4ccc(N5CCOCC5)nc4)n3)c2)c1 [Compound 79]

Target: T5, FLT-3 tyrosine kinase (Homo sapiens, UniProt P36888)
T5 construct: purchased Upstate Cell Signalling Solutions, CA, USA 14-500
T5 sequence (P36888 27-993): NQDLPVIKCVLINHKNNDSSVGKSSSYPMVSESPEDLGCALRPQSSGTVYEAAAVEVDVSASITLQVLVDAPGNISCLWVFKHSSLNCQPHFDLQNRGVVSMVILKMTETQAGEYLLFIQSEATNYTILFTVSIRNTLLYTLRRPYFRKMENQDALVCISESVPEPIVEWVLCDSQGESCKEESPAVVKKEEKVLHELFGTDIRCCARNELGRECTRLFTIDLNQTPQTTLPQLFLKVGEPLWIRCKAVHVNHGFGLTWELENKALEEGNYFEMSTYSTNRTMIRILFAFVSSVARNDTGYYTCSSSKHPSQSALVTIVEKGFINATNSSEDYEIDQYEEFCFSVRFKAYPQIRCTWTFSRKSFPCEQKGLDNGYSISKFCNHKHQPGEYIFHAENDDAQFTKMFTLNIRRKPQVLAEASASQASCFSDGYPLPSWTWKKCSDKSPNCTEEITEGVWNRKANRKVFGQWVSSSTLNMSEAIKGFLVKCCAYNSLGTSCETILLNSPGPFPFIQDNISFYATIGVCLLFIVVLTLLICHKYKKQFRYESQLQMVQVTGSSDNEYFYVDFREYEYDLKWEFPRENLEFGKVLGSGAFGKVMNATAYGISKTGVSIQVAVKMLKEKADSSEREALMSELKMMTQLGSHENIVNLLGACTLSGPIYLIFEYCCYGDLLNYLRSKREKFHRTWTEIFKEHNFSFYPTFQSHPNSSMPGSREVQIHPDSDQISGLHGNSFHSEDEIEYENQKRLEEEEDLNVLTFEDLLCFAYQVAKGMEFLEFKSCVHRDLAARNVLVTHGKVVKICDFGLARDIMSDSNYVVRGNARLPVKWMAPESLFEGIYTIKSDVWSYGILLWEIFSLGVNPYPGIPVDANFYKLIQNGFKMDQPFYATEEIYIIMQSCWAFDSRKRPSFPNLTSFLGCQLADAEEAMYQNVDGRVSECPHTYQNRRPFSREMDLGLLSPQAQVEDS
Assay: Alphascreen protein tyrosine kinase assay, FLT-3
Format: biochemical
Settings: read-out: Flt3

SMILES	pIC50
COc1cc(-c2cncc(N[C@@H](C)c3cccc(NC(=O)c4cccnc4)c3)n2)ccc1N [Compound 7]	> 5.00
COc1cccc(-c2cncc(N[C@@H](C)c3cccc(NC(=O)c4cncc(C)c4)c3)n2)c1 [Compound 24]	> 5.00
COc1cc(-c2cncc(N[C@@H](C)c3cccc(NC(=O)c4cncc(C)c4)c3)n2)ccc1O [Compound 28]	> 5.00
Cc1cncc(C(=O)Nc2cccc([C@H](C)Nc3cncc(-c4ccc(NCCN5CCOCC5)nc4)n3)c2)c1 [Compound 80]	< 5.00

The next lines start with the values.

pIC50	SMILES
> 5.00	COc1cc(-c2cncc(N[C@@H](C)c3cccc(NC(=O)c4cncc(C)c4)c3)n2)ccc1N [Compound 29]
> 5.00	COc1cc(-c2cncc(N[C@@H](C)c3cccc(NC(=O)c4ccc(C)nc4)c3)n2)ccc1N [Compound 38]
> 5.00	COc1cc(-c2cncc(N[C@@H](C)c3cccc(NC(=O)c4cccc(C)c4)c3)n2)ccc1O [Compound 76]
< 5.00	Cc1cncc(C(=O)Nc2cccc([C@H](C)Nc3cncc(-c4ccc(N5CCOCC5)nc4)n3)c2)c1 [Compound 79]
